Data on 15 compounds can be found in ChEMBL document CHEMBL3813681, “Synthesis and structure-activity relationship of 2,6-disubstituted pyridine derivatives as inhibitors of β-amyloid-42 aggregation” (Bioorg Med Chem Lett, 2016).

Data set [1] deals with T1, Amyloid-beta precursor protein (Homo sapiens, UniProt P05067). The data set can be described thus: Inhibition of Abeta42 (unknown origin) aggregation assessed as ThT fluorescence at 330 uM measured after 24 hrs by ThT fluorescence assay relative to DMSO control. The arrangement: scale not given: the % may be the effect or the level left.
Data set [2] in a line: Aqueous solubility of the compound in PBS at pH 7.4. Format: physicochemical.
Data set [3] deals with T1, Amyloid-beta precursor protein. The experiment in a line: Inhibition of Abeta42 (unknown origin) aggregation measured after 24 hrs by ThT fluorescence assay.
Data set [4] in a line: Lipophilicity, logD of the compound. Format: physicochemical. As to conditions: octanol/water.
A short description of data set [5]: Half life in human liver S9 fraction. The data set is classed as ADME, subcellular.
Data set [6] in a line: Cmax in Swiss mouse brain at 2 mg/kg, iv. The data set is classed as ADME, organism-based. Further details: dose 2 mg/kg, route intravenous.
The nature of data set [7]: Cmax in Swiss mouse plasma at 2 mg/kg, iv. Format: ADME, organism-based. The arrangement: dose 2 mg/kg, route intravenous.
In the next data set the test system is Liver. The data set can be described thus: Clearance in human liver S9 fraction. Format: ADME, subcellular.
Data set [8] in a line: Half life in Swiss mouse brain at 2 mg/kg, iv. The data set is classed as ADME, organism-based.
Data set [9] is described as follows: AUC in Swiss mouse plasma at 2 mg/kg, iv. The data set is classed as ADME, organism-based.
Data set [10] is described as follows: Volume of distribution in Swiss mouse plasma at 2 mg/kg, iv. The data set is classed as ADME, organism-based.
The nature of data set [11]: Ratio of drug level in brain to plasma in Swiss mouse at 2 mg/kg, iv measured after 5 mins. Format: ADME, organism-based. As to conditions: brain and plasma, read-out: BPR.
The next data set relates to P-gp. The experiment in a line: Substrate activity at P-gp (unknown origin) assessed as efflux ratio of apparent permeability of the compound. As to conditions: human, not told. The data set is classed as ADME.
Data set [12] is described as follows: Volume of distribution in Swiss mouse brain at 2 mg/kg, iv. Format: ADME, organism-based.
Data set [13] in a line: AUC in Swiss mouse brain at 2 mg/kg, iv. The data set is classed as ADME, organism-based.
Data set [14] in a line: Half life in Swiss mouse plasma at 2 mg/kg, iv. The data set is classed as ADME, organism-based.
Data set [15] is described as follows: Apparent permeability of the compound from apical to basolateral side. The data set is classed as physicochemical. As to conditions: not told.

Molecules are shown by their SMILES. pIC50: −log10 of the molar value. ≈ marks a conversion by molar mass, not a printed value.

T1 sequence (P05067 whole entry): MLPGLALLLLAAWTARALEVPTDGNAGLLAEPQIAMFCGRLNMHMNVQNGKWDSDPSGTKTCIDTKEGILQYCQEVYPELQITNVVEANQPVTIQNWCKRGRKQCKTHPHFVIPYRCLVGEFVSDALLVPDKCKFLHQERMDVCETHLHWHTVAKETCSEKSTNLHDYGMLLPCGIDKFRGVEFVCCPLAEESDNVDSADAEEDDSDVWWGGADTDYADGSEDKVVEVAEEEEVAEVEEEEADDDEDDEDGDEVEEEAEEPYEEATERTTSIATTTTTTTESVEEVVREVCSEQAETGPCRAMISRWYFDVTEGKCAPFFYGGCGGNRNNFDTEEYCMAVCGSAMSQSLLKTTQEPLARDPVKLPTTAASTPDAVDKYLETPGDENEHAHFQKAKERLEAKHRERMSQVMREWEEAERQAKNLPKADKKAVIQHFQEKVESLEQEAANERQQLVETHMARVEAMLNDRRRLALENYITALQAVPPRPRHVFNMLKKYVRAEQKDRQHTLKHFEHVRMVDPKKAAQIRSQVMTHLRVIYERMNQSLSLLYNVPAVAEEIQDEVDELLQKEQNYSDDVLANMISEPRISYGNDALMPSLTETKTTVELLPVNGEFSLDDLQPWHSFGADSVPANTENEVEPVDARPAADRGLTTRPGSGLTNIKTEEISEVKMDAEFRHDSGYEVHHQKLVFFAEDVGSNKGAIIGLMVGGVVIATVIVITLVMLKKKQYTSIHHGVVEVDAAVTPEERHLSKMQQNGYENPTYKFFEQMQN

`CNc1cccc(CCNc2cccc(CCCNc3ccccn3)n2)n1`: the Activity in [1] worked out at 23%.

For `CNc1cccc(CCNc2cccc(CNc3ccccn3)n2)n1`, in data set [1], the Activity worked out at 53%.

For the compound `CNc1cccc(CNc2cccc(CNc3ccccn3)n2)n1`, the Activity in [1] is over 60%. Also, the solubility in [2] is 18 µM (≈ 5.77 µg/mL).

With `CNc1cccc(NCCc2ccccn2)n1`, the Activity in [1] turned out to be 36%.

Compound `CNc1cccc(CCNc2cccc(CCN(c3ccccn3)c3ccccn3)n2)n1` showed a negative logarithm of the IC50 (pIC50) in [3] of 3.62. Moreover, the Activity in [1] is 16%.

In the case of `CNc1cccc(NCCc2cccc(NCc3ccccn3)n2)n1`, the Activity in [1] worked out at 14%.

Turning to `CNc1cccc(CCNc2cccc(CCNc3ccccn3)n2)n1`, the pIC50 in data set [3] was 3.55. The Activity in data set [1] was determined as 16%.

For the compound `CNc1cccc(CCNc2cccc(NC)n2)n1`, in data set [1], the Activity stood at 23%.

Take `CNc1cccc(CNc2cccc(CCNc3ccccn3)n2)n1`: the Activity in [1] was over 60%.

In the case of `CNc1cccc(CNc2cccc(CCN(c3ccccn3)c3ccccn3)n2)n1`, in [1], the Activity was 23%.

On to `CNc1cccc(CCNc2cccc(NCCc3ccccn3)n2)n1`, for which the Activity in [1] turned out to be 12%. In addition, in [2], the solubility was over 200 µM.

As for `CNc1cccc(CCCNc2cccc(CCCNc3ccccn3)n2)n1`, the Activity in [1] is 23%.

For the compound `CNc1cccc(NCCc2cccc(NCCc3ccccn3)n2)n1`, in data set [4], the logD came out at 2.96. In addition, the figures for the half-life in [5], in data set [8] and in data set [14] were 10 min, 314 min and 37.8 min, respectively. In addition, the highest concentration (Cmax) in [6] worked out at 1840 ng/mL; in data set [7], 308 ng/mL. The same compound had a negative logarithm of the IC50 (pIC50) in data set [3] of 4.60. In addition, in the data set with Liver, the CLH came out at 70 µL/min/mg. In data set [1], the Activity was found to be 12%. Besides, the area under the curve (AUC) in data set [9] was 150 ng·h/mL; in [13] it was 863 ng·h/mL. Besides, the Vd in data set [10] was determined as 12 L/kg; in data set [12], 18.9 L/kg. Moreover, the Kp at 5 min in data set [11] came to 5.98. Moreover, in the data set on P-gp, the efflux ratio came out at 0.78. The compound also came in with a solubility in [2] of over 200 µM. Further, the apparent permeability from apical to basolateral (Papp A→B) in data set [15] came out at 49.2 ×10⁻⁶ cm/s.

In the case of `CNc1cccc(NCCCc2cccc(NCCCc3ccccn3)n2)n1`, the negative-log IC50 (pIC50) in data set [3] was 4.77. In data set [1], the Activity amounted to 12%.

Take `Nc1c(/N=N/c2ccc(-c3ccc(/N=N/c4cc(S(=O)(=O)O)c5ccccc5c4N)cc3)cc2)cc(S(=O)(=O)O)c2ccccc12` [CONGO RED]: the negative logarithm of the IC50 (pIC50) in data set [3] was 5.89.
